# Reference: publication PMC2827632 (Biochemistry, 2010)
# Tests used:
# Mtb Lpd R347S = Mtb Lpd R347S (Mycobacterium tuberculosis, UniProt P9WHH9, R347S)
# Mtb Lpd A181V = Mtb Lpd A181V (Mycobacterium tuberculosis, UniProt P9WHH9, A181V); conditions: 100 µM
smiles,measurement,setting,value
"COc1ccc(C(=O)N2CCC3(CC2)C(=O)N(CC(=O)NCCc2ccc(Cl)cc2Cl)CN3c2ccccc2)c(OC)c1 [compound 5, N-(2,4-dichlorophenethyl)-2-(8-(2,4-dimethoxybenzoyl)-4-oxo-1-phenyl-1,3,8-triazaspiro[4.5]decan-3-yl)acetamide]","Decrease in potency, R347S vs wild-type",Mtb Lpd R347S,more than 100 fold
same,Inhibition of A181V Mtb Lpd,Mtb Lpd A181V,10%
